Measured values as given in patent US20030236218A1, “Aryl phosphate derivatives of d4T with selective activity against adenovirus and HIV” (priority 2002, published 2003).
Where two headings read alike, the source gives them in different places.

Legend:
[1] = test system: herpes simplex virus (HSV) Type I strain HF; experiment: HSV-1 plaque formation assay in VERO cells; format: cell-based; settings: Human alphaherpesvirus 1, HSV-1, Strain HF
Text: (§1) Virus stocks. The HIV-1 strain used in this study was HTLV-IIIB (Uckun et al., 1998 Antimicro. Agents and Chemother., 42:383-388). The non-HIV viruses included in the present study were the gancyclovir-sensitive cytomegalovirus (CMV) strain AD169 (ATCC VR-538); acyclovir-sensitive herpes simplex virus (HSV) Type I strain HF (ATCC VR-260); acyclovir-sensitive HSV Type II strain G (ATCC VR-734); adenovirus strain Type 5, strain adenoid 75 (ATCC VR-5); enterovirus strain, ECHO 30, strain Bastianni (ATCC VR-322); and respiratory syncytial virus (RSV), strain Long (ATCC VR-26).
Plaque formation assays. Plaque assays were used to examine the activity of the compounds against non-HIV viruses. The skin fibroblast cell line SF (ATCC CRL-2097) was used as a target for AD169, Adenovirus Type 5. […] cell line (ATCC CCL-81) was used as a target for HSV HF and G. The HEP-2 cell line (ATCC CCL-23) was used as a target for the RSV strain Long. These cell lines were cultured at 1×10^5 cells/well in 24-well (all but ECHO 30-infected SF) or 6-well (ECHO 30-infected SF) tissue culture plates with 0.9% methylcellulose or 0.4% SeaPlaque agarose semisolid support. […] Percent inhibition of plaque formation was calculated by comparing the plaque numbers from the test substance-treated infected cells with the plaque numbers from untreated infected cells (i.e., virus controls). The IC50 values were determined using the Statview statistics program (SAS Institute, Inc., Cary, N.C.).
Statistical analysis. […] An IC50 value was calculated from each set of triplicate wells using nonlinear regression modeling of the exponential form of the linearized equation (Statview, SAS Institute, Inc., Cary, N.C.). […]
The skin fibroblast cell line SF (ATCC CRL-2097) was used as a target for AD169, Adenovirus Type 5, and ECHO 30; the VERO cell line (ATCC CCL-81) was used as a target for HF and G; and the HEP-2 cell line (ATCC CCL-23) was used as target for the RSV strain Long. Results are expressed as the average IC50 values in μM. […]

[2] = Pharmacokinetic studies in mice, oral administration; format: in vivo, Balb/c mice
Description: Female Balb/c mice (6-8 weeks old) from Taconic (Germantown, N.Y.) were housed in a controlled environment (12-hours of light/12-hours of dark, 22±1° C., 60±10% relative humidity), which is fully accredited by the USDA. All rodents were housed in microisolator cages (Lab Products, Inc., NJ) containing autoclaved bedding. The mice were allowed free access to autoclaved pellet food and tap water throughout the study. All animal care procedures conformed to the Guide for the Care and Use of Laboratory Animals (National Research Council, National Academy Press, Washington D.C. 1996).
Sampling time points were 0, 2, 5, 10, 15, 30, 45, 60, 120, 240 and 360 minutes after the gavage.
All collected blood samples were heparinized and centrifuged at 7000×g for 5 minutes to separate the plasma fraction from the whole blood. The plasma samples were then processed immediately using the extraction procedure described above.
Pharmacokinetic modeling and parameter calculations were carried out using the WinNonlin Professional Version 3.0 (Pharsight, Inc., Mountain, Calif.) pharmacokinetics software (Chen et al., Pharm. Res., 16, 1003 (1999); Chen et al., Pharm. Res., 16, 117 (1999); Chen et al., J. Clin. Pharmacol., 39, 1248 (1999); Uckun et al., Clin. Cancer Res., 5, 2954 (1999); and Uckun et al., J. Pharmacol. Exp. Ther., 291, 1301 (1999)). An appropriate model was chosen on the basis of the lowest sum of weighted squared residuals, the lowest Schwartz Criterion (SC), the lowest Akaike's Information Criterion (AIC) value, the lowest standard errors of the fitted parameters, and the dispersion of the residuals. The elimination half-life was estimated by linear regression analysis of the terminal phase of the plasma concentration-time profile. The area under the concentration-time curve (AUC) was calculated according to the linear trapezoidal rule between the first sampling time (0 hours) and the last sampling time plus C/k, where C is the concentration of the last sampling and k is the elimination rate constant. The systemic clearance (CL) was determined by dividing the dose by the AUC. The metabolic clearance of the parent drug, the formation clearance of the metabolite, the clearance elimination of the metabolite, and the distribution clearance of the metabolite were estimated by simultaneous fitting of the concentration of parent drug and metabolites as a function of time curve to pharmacokinetic models (see FIGS. 7A & 8A) specified as a system of differential equations (Gabrielsson & Weiner, Phamacokinetic/Phamacodynamic Data Analysis: Concepts and Applications, Swedish Pharmaceutical Press (1997)).

HIV-1 strain HTLV-IIIB = experiment: In vitro anti-HIV-1 activity, p24 antigen assay in PBMNC; format: cell-based; settings: Human immunodeficiency virus 1, HIV-1, HTLV-IIIB, day 7
Text: as §1
In vitro assays of anti-HIV-1 activity. Normal human peripheral blood mononuclear cells (PBMNC) from HIV-negative donors were cultured 72 hours in RPMI 1640 supplemented with 20% (v/v) heat-inactivated fetal bovine serum (FBS), 3% interleukin-2, 2 mM L-glutamine, 25 mM HEPES, 2 g/L NaHCO3, 50 Tg/mL gentamicin, and 4 Tg/mL phytohemagglutinin prior to exposure to HIV-1 at a multiplicity of infection (MOI) of 0.1 during a 1 hour adsorption period at 37° C. in a humidified 5% CO2 atmosphere. Subsequently, cells were cultured in 96-well microtiter plates (100 TL, 2×10^6 cells/mL) in the presence of various concentrations of compounds 113 or 609. Aliquots of culture supernatants were removed from the wells on the seventh day after infection for p24 antigen assays, as previously described. […] Percent viral inhibition was calculated by comparing the p24 values from untreated infected cells (i.e., virus controls).
Statistical analysis. […] An IC50 value was calculated from each set of triplicate wells using nonlinear regression modeling of the exponential form of the linearized equation (Statview, SAS Institute, Inc., Cary, N.C.). Hydrolysis rates were determined by fitting single exponential decay equations to the disappearance of the compound in alkali conditions (all R^2 values greater than 0.85). […]

[3] = Octanol/water partition coefficient, shake flask method; format: physicochemical; settings: 4 hours at room temperature, read-out: Oct/Water (log P)
Description: HPLC purification was achieved using a reverse-phase Lichrospher column (250×4 mm, Hewlett-Packard, RP-18, Cat. #79925) and an isocratic flow (1 ml/minute) consisting of water (70%) and acetonitrile (30%). Melting points were determined using a Melt John's apparatus and are uncorrected. Column chromatography was performed using silica gel obtained from Baker Company. The octanol/water partition coefficient was determined by the shake flask method. The phosphoramidate analogs were added to 2 ml of water and 2 ml of octanol in a glass vial. The mixture was shaken for 4 hours at room temperature. The two phases were carefully separated and filtered through a Millipore filter and analyzed by HPLC. The partition coefficient was calculated using the ratio of the area under the curve for octanol and water, respectively.

Row | SMILES | IC50 [1] | plasma concentration of the parent ([2]; after oral 100 mg/kg compound 113, below the detection limit) | IC50 (HIV-1 strain HTLV-IIIB) | logP at 4 h [3] | half-life ([2]; mouse, in vivo, po, mice, orally administered d4T) | Tmax ([2]; mouse, in vivo, po, mice, orally administered d4T, read-out: tmax (converted)) | bioavailability ([2]; orally administered d4T) | logP at 4 h ([3]; octanol/water)
1 | COC(=O)C(C)NP(=O)(OC[C@@H]1C=C[C@H](n2cc(C)c(=O)[nH]c2=O)O1)Oc1ccc(Br)cc1 (stereo partly shown) [Compound 113, 5′-[4-Bromophenyl methoxylaninylphosphate]-2′, 3′-didehydro-3′-deoxy thymidine] | > 100 µM | < 500 nM | 0.001 µM | 1.21 | – | – | – | –
2 | Cc1cn([C@H]2C=C[C@@H](CO)O2)c(=O)[nH]c1=O [d4T, 2′, 3′-Didehydro-3′-deoxy thymidine, reference compound] | > 100 µM | – | 0.023 ± 0.008 µM | – | 18 min | 5 min | 98% | -0.59
